Assay results published in patent US11596637B2, “CHK1 (SRA737)/PARPi combination methods of inhibiting tumor growth” (SIERRA ONCOLOGY, INC., priority 2017, dated 2023).
Where two headings read alike, the source gives them in different places.

How the values were obtained:
10 cancer cell lines = format: cell-based; conditions: for single agent activity across the cancer cell lines tested (in words): 10 cancer cell lines
Procedure: (§1) Briefly, cell lines were preserved in liquid nitrogen and thawed and expanded in growth media containing full serum. As the cells reached expected doubling times, the screening assay began. Cells were seeded in growth media and equilibrated via centrifugation. The cell cultures were placed in incubators and then underwent treatment. Assay plates were collected and ATP levels were measured. Assay plates were incubated with combinations for seventy two (72) or ninety six (96) hours in simultaneous and sequential dosing schedules.
(§2) Cell lines that have been preserved in liquid nitrogen were thawed and expanded in growth media containing full serum. Once cells have reached expected doubling times, screening began. Cells were seeded in growth media in black 384-well tissue culture treated plates at cell densities as listed in Appendix 1 incorporated into and part of this specification. Cells were equilibrated in assay plates via centrifugation and placed in incubators (attached to the Dosing Modules) at 37° C. for 24 hours before treatment. […] These Tzero (T0) plates were read using ultra-sensitive luminescence on Envision plate readers. Assay plates were incubated with compounds for 72 and were then analyzed using ATPLite™.
(§3) Chalice Analyzer allows two ways of visualizing single agent dose response curves. The Logistics Curve fit modeling in Analyzer uses sigmoidal modeling of the data points. In most contexts, the Logistics Curve fit will accurately model the dose response curve. All subsequent analyses for the single agent and combination activities of SRA737 contained within the Examples use the Linear Interpolation Curve fit.
(§4) A GI 100% represents complete growth inhibition (cytostasis) and in this case cells treated with compound for 72 or 96 hours would have the same endpoint reading as T0 control cells. A GI of 200% represents complete death (cytotoxicity) of all cells in the culture well and in this case the T reading at 72 or 96 hours will be lower than the T0 control (values near or at zero). These GI calculations were used in all single agent and combination data analysis for the combination screen.
(§5) Single agent activity of SRA737 and four PARP inhibitors in each of 10 cancer cell lines comprising breast, ovarian, prostate sarcoma and head and neck cancer cells was assessed (FIGS. 3-9). The 10 cancer cell lines examined were: A673, B-474, CAL-27, DU-145, MDA-MB-231, OVCAR-3, OVCAR-5, PC-3, HT-29 and SK-BR-3. The cell lines were screened with a 72 hour treatment schedule. Cell viability was measured by detection of ATP metabolism using an ATP monitoring luminescence detection assay (ATPLite™) GI50, IC50, Maximum Response Observed (Max Response) were calculated (FIG. 5).

DU145 cells = assay: Single agent assessment, ATPLite cell viability, 72 hour treatment; format: cell-based, human
Procedure: as §1, §2, §3, §4, §5

OVCAR-5 cells = assay: as above; format: cell-based, human
Procedure: as §1, §2, §3, §4, §5

MDA-MB-231 cells = assay: as above; format: cell-based, human
Procedure: as §1, §2, §3, §4, §5

BT-474 cells = assay: as above; format: cell-based, human
Procedure: as §1, §2, §3, §4, §5

A673 cells = assay: as above; format: cell-based, human
Procedure: as §1, §2, §3, §4, §5

HT-29 cells = assay: as above; format: cell-based, human
Procedure: as §1, §2, §3, §4, §5

OVCAR-3 cells = assay: as above; format: cell-based, human
Procedure: as §1, §2, §3, §4, §5

PC-3 cells = assay: as above; format: cell-based, human
Procedure: as §1, §2, §3, §4, §5

CAL-27 cells = assay: as above; format: cell-based, human
Procedure: as §1, §2, §3, §4, §5

SK-BR-3 cells = assay: as above; format: cell-based, human
Procedure: as §1, §2, §3, §4, §5

Cn1ncnc1[C@H]1c2n[nH]c(=O)c3cc(F)cc(c23)N[C@@H]1c1ccc(F)cc1 [BMN 673, Talazoparib]
single agent activity across the cancer cell lines tested (in words) (10 cancer cell lines; 72 hour treatment): activity in most of the cancer cell lines tested

NC(=O)c1cccc2cn(-c3ccc([C@@H]4CCCNC4)cc3)nc12 [Niraparib]
single agent activity across the cancer cell lines tested (in words) (10 cancer cell lines; 72 hour treatment): activity in most of the cancer cell lines tested

O=C(c1cc(Cc2n[nH]c(=O)c3ccccc23)ccc1F)N1CCN(C(=O)C2CC2)CC1 [Olaparib]
single agent activity across the cancer cell lines tested (in words) (10 cancer cell lines; 72 hour treatment): activity in most of the cancer cell lines tested

CNCc1ccc(-c2[nH]c3cc(F)cc4c3c2CCNC4=O)cc1 [Rucaparib]
single agent activity across the cancer cell lines tested (in words) (10 cancer cell lines; 72 hour treatment): activity in most of the cancer cell lines tested

N#Cc1cnc(Nc2cc(NCC3CNCCO3)c(C(F)(F)F)cn2)cn1 (centres unmarked) [SRA737, 5-[[4-[[morpholin-2-yl]methylamino]-5-(trifluoromethyl)-2-pyridyl]amino]pyrazine-2-carbonitrile]
number of cancer cell lines in which single agent activity was demonstrated (10 cancer cell lines; of the 10 cancer cell lines, 72 hour treatment): 8
kind of single agent effect (cytotoxic / cytostatic) (10 cancer cell lines; the remaining six responsive cell lines): cytostatic
kind of single agent effect (cytotoxic / cytostatic) (10 cancer cell lines; the two most responsive cell lines): modestly cytotoxic
sensitivity of the cell line to the single agent (DU145 cells): intermediate sensitivity
sensitivity of the cell line to the single agent (OVCAR-5 cells): highest sensitivity
sensitivity of the cell line to the single agent (MDA-MB-231 cells): least sensitivity
sensitivity of the cell line to the single agent (BT-474 cells): least sensitivity
sensitivity of the cell line to the single agent (A673 cells): intermediate sensitivity
sensitivity of the cell line to the single agent (HT-29 cells): intermediate sensitivity
sensitivity of the cell line to the single agent (OVCAR-3 cells): intermediate sensitivity
sensitivity of the cell line to the single agent (PC-3 cells): least sensitivity
sensitivity of the cell line to the single agent (CAL-27 cells): least sensitivity
sensitivity of the cell line to the single agent (SK-BR-3 cells): highest sensitivity
